From article PMC12371494, “Discovery of YTHDF2 Ligands by Fragment-Based Design” (ACS Bio & Med Chem Au, 2025)

The compounds below were run against T1, GST-YTHDF3 (Homo sapiens, UniProt Q7Z739) (assay: HTRF-based binding assay, DF3). Settings: HTRF, 100 µM compound, normalized.
T1 construct: made in house
T1 sequence (Q7Z739 1-585): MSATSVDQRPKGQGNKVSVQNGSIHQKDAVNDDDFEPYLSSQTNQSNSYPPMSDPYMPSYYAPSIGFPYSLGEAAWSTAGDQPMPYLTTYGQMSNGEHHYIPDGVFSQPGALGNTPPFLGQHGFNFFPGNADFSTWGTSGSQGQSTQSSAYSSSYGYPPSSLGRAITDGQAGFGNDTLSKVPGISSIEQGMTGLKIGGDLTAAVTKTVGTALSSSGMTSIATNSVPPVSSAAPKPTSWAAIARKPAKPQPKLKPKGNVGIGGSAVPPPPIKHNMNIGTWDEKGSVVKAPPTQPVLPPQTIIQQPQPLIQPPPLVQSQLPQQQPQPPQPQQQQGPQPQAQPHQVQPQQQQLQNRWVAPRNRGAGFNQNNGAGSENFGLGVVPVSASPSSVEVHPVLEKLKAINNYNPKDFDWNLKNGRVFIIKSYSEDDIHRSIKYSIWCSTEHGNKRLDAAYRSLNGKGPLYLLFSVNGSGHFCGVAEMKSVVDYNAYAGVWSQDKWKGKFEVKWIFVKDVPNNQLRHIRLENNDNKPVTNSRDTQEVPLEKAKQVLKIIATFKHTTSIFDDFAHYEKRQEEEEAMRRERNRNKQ
Description: (§1) The HTRF-based assay was employed to evaluate the selectivity of the series against other DF proteins.
(§2) A dose–response experiment on DF1 and DF3 was conducted for compounds 17, 18, 23, and 27 (Figure S5). Compounds 17, 18, and 27 are active on three DF proteins. […] In contrast, compound 23 is selective for DF2, with residual signals (at the highest employed concentration of 62.5 μM) of 51 and 87% for DF1 and DF3, respectively.
(§3) GST-YTHDC1, GST-YTHDF1, GST-YTHDF2, and GST-YTHDF3 were purified as previously reported. The HTRF assay was assembled as detailed in ref with the only difference being that the starting concentration of the dose–response experiments used for the IC50 determination was variated dependently from the tested compound. The same protocol was applied to the four proteins. The competitive inhibition data of GST-YTHDF1 (single dose experiment at 100 μM compound concentration and dose–response curves), GST-YTHDF3 (single dose experiment at 100 μM compound concentration and dose–response curves), and GST-YTHDF2 (single dose experiment at 100 μM compound concentration) were normalized as described in ref to mitigate interference. The signal was measured as described in ref .

Row | Compound | Single-dose residual signal at 100 µM, DF3 [%]
1 | Cc1c(C(=O)NCc2ccccc2)sc2[nH]c(=S)[nH]c(=O)c12 [Compound 22] | 18
2 | O=c1[nH]c(=S)[nH]c2scc(-c3ccc(Br)cc3)c12 [Compound S75] | 8
3 | COc1ccc(-c2csc3[nH]c(=S)[nH]c(=O)c23)cc1 [Compound S76] | 12
4 | O=c1[nH]c(=S)[nH]c2scc(C3CCCCC3)c12 [Compound S77] | 35
5 | O=c1[nH]c(=S)[nH]c2sc(Cc3ccccc3)cc12 [Compound S85] | 35
6 | CCOC(=O)c1csc2[nH]c(=S)[nH]c(=O)c12 [Compound S89] | 16
7 | O=C(O)c1csc2[nH]c(=S)[nH]c(=O)c12 [Compound S90] | 34

Each compound was assayed against T2, GST-YTHDF1 (Homo sapiens, UniProt Q9BYJ9) (assay: HTRF-based binding assay, DF1). Settings: HTRF, 100 µM compound, normalized.
T2 construct: made in house
T2 sequence (Q9BYJ9 1-559): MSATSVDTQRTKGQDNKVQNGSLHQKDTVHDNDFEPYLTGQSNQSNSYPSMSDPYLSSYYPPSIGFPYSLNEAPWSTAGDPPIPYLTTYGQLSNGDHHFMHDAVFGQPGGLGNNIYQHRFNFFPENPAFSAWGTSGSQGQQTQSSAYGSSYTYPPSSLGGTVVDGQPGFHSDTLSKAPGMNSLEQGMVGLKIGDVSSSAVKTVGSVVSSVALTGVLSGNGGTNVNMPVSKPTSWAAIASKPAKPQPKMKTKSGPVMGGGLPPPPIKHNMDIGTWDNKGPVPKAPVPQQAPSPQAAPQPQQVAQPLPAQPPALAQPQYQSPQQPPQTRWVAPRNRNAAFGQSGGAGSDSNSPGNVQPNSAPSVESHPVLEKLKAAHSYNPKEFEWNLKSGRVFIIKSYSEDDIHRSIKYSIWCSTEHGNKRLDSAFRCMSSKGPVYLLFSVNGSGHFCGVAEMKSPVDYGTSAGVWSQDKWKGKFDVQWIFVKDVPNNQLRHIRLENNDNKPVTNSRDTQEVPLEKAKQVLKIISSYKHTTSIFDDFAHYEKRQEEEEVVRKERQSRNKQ
Description: as §1, §2, §3

Row | Compound | Single-dose residual signal at 100 µM, DF1 [%]
8 | Cc1c(C(=O)NCc2ccccc2)sc2[nH]c(=S)[nH]c(=O)c12 [Compound 22] | 17
9 | O=c1[nH]c(=S)[nH]c2scc(-c3ccc(Br)cc3)c12 [Compound S75] | 9
10 | COc1ccc(-c2csc3[nH]c(=S)[nH]c(=O)c23)cc1 [Compound S76] | 12
11 | O=c1[nH]c(=S)[nH]c2scc(C3CCCCC3)c12 [Compound S77] | 32
12 | O=c1[nH]c(=S)[nH]c2sc(Cc3ccccc3)cc12 [Compound S85] | 34
13 | CCOC(=O)c1csc2[nH]c(=S)[nH]c(=O)c12 [Compound S89] | 16
14 | O=C(O)c1csc2[nH]c(=S)[nH]c(=O)c12 [Compound S90] | 36

These compounds were tested against T3, GST-YTHDF2 (Homo sapiens, UniProt Q9Y5A9) (assay: HTRF-based binding assay, competition with m6A-oligoRNA, DF2). Settings: HTRF, 100 µM compound, normalized.
T3 construct: made in house
T3 sequence (Q9Y5A9 1-579): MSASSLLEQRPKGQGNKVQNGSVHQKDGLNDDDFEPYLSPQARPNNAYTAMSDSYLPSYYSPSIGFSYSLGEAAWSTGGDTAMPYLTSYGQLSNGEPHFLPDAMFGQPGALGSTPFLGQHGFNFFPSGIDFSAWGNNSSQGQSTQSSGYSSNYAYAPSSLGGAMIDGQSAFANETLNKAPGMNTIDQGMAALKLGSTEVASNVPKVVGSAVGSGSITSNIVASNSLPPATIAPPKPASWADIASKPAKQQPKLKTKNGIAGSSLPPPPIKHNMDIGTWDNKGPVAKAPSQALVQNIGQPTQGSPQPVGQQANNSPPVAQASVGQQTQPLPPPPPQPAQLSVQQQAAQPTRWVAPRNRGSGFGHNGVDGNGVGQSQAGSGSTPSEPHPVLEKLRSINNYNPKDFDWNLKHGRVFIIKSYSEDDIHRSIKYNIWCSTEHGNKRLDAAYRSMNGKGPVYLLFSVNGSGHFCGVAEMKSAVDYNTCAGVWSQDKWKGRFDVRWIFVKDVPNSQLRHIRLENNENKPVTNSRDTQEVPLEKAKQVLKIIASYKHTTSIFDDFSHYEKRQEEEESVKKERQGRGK

Row | Compound | Single-dose residual signal at 100 µM, DF2 [%]
15 | Cc1c(C(=O)NCc2ccccc2)sc2[nH]c(=S)[nH]c(=O)c12 [Compound 22] | 5
16 | O=c1[nH]c(=S)[nH]c2scc(-c3ccc(Br)cc3)c12 [Compound S75] | 4
17 | COc1ccc(-c2csc3[nH]c(=S)[nH]c(=O)c23)cc1 [Compound S76] | 6
18 | O=c1[nH]c(=S)[nH]c2scc(C3CCCCC3)c12 [Compound S77] | 12
19 | O=c1[nH]c(=S)[nH]c2sc(Cc3ccccc3)cc12 [Compound S85] | 13
20 | CCOC(=O)c1csc2[nH]c(=S)[nH]c(=O)c12 [Compound S89] | 8
21 | O=C(O)c1csc2[nH]c(=S)[nH]c(=O)c12 [Compound S90] | 14

Same assay, conditions: LE = -RT ln IC50/HAC from HTRF IC50

Row | Compound | LE (ligand efficiency, DF2)
22 | Cc1c(C(=O)NCc2ccccc2)sc2[nH]c(=S)[nH]c(=O)c12 [Compound 22] | 0.31 kcal/(mol HAC)

Same assay, conditions: dose-response, competitor m6A-oligoRNA; read-out: DF2 IC50 (HTRF assay)

Row | Compound | IC50 [µM]
23 | Cc1c(C(=O)NCc2ccccc2)sc2[nH]c(=S)[nH]c(=O)c12 [Compound 22] | 10
24 | O=c1[nH]c(=S)[nH]c2scc(-c3ccc(Br)cc3)c12 [Compound S75] | 27
25 | COc1ccc(-c2csc3[nH]c(=S)[nH]c(=O)c23)cc1 [Compound S76] | 24
26 | O=c1[nH]c(=S)[nH]c2scc(C3CCCCC3)c12 [Compound S77] | 33
27 | O=c1[nH]c(=S)[nH]c2sc(Cc3ccccc3)cc12 [Compound S85] | 33
28 | CCOC(=O)c1csc2[nH]c(=S)[nH]c(=O)c12 [Compound S89] | 62
29 | O=C(O)c1csc2[nH]c(=S)[nH]c(=O)c12 [Compound S90] | 60

Each compound was assayed against YTHDC1 (Homo sapiens, UniProt Q96MU7) (assay: DNA-fluorescence polarization (FP) competition assay, DC1). Settings: not given.
Type: binding
Description: The binding affinity for DC1 could not be evaluated by HTRF because of interference of the compounds with the assay, which has a smaller assay window when performed with DC1 compared to the DF proteins. Thus, the FP assay was used to evaluate binding to DC1 and DC2.
For fluorescence polarization (FP) experiments, a 5′-fluorescein-labeled m^6A-DNA probe (5′-FAM-[…](m6A)-CTAAGCT-3′) was synthesized by Microsynth AG.
The final concentration of the fluorescein-labeled DNA was kept constant at 3 nM. For YTHDC2 measurements, the protein concentration was set to 25 nM, while for YTHDF2 measurements, it was set to 10 nM, and for YTHDC1, it was set at 15 nM. The compound concentration was serially diluted to obtain the dose–response curve. The competition experiments were conducted in a final volume of 20 μL in a buffer containing 20 mM Tris–HCl (pH 7.4), 150 mM NaCl, and 0.01% bovine serum albumin (BSA), using a 384-well black flat-bottomed microplate (Corning 3575).
After incubating the mixture for 1 h, the anisotropy values were measured using a Tecan SPARK plate reader with 485/20 nm excitation and 535/25 nm emission polarization filters, suitable for fluorescein, at 25 °C. To obtain the equilibrium dissociation constant (K d), the IC50 values were first derived by fitting a dose–response curve to the data using nonlinear regression analysis in GraphPad Prism. These IC50 values were then converted to K d by using the Cheng–Prusoff equation: Kd=IC50/1+[L]/Kdprobe
IC50 is the observed value from FP assay, [L] is the probe concentration used, and K d ^probe is the binding affinity of probe for the target.

Row | Compound | Kd [µM]
30 | Cc1c(C(=O)NCc2ccccc2)sc2[nH]c(=S)[nH]c(=O)c12 [Compound 22] | 92
